Measurements published in PMC10200060, “Inhibition of DAMP actions in the tumoral microenvironment using lactoferrin-glycyrrhizin conjugate for glioblastoma therapy” (Biomaterials Research, 2023).

Legend:
CD31 = test: Immunofluorescence staining of CD31 in GBM tissue; format: in vivo, Balb/c nude mice; conditions: GBM mice, daily i.v., 14 days (control MFI 14.7 ± 1.4)
From the text: (§1) After two weeks, mice were sacrificed, and the brains were harvested and fixed with paraformaldehyde (4%). Then, tissue processing was automatically conducted using a Leica TP1020 semi-enclosed Benchtop Tissue Processor (Leica Biosystems, Wetzlar, Hesse, Germany), followed by embedding in paraffin blocks. Paraffin blocks were sliced into 5 μm thick slices using a Leica RM2145 Microtome (Leica Biosystems). Nissl staining was used to stain brain tissue slides with pre-warmed 0.1% Cresyl Violet Stain Solution (Abcam). TUNEL assays were conducted following the manufacturer’s instructions. For immunofluorescence staining; anti-HMGB1 antibody (Abcam), anti-Ki67 antibody (Abcam), anti-CD31 antibody (Abcam), and anti-VEGF antibody (Abcam) were used as primary antibodies, and goat anti-rabbit IgG-H&L Alexa Fluor 488 and goat anti-rabbit IgG H&L Alexa Fluor 647 were used as secondary antibodies, followed by DAPI mounting.

[1] = system: orthotopic GBM (U87MG) mice model; test: Survival in orthotopic GBM mouse model; format: in vivo, Balb/c nude mice; conditions: i.v. GL equivalent 50 mg kg^−1 (Lf 5 mg kg^−1), 28 days
Protocol: To establish the orthotopic GBM mice model, GBM cells (U87MG, inoculation density: 1.0 × 10^6 cells per 10 μL) were stereotactically injected into the right striatum of Balb/c nude mice. Then, mice were randomly divided into four groups (n = 5): control, GL, Lf, and Lf-GL treated group. […] After four weeks, mice were sacrificed, and organs were harvested and fixed with 4% paraformaldehyde for further analysis.

[2] = system: U87MG human glioma cell line; test: Cell viability test (CCK-8) in U87MG; format: cell-based; conditions: 50 μM GL equivalent, after 48 h treatment
Protocol: Cell viability was determined using a cell counting kit-8 (CCK-8). U87MG and HUVECs (seeding density: 0.75 × 10^4 cells per well) in 96-well culture plates were treated with GL, Lf, or Lf-GL (25 to 200 × 10^–6 M of GL equivalent concentration) and were incubated for different periods of time (24, 48, and 72 h). After washing with PBS, they were treated with a cell culture medium containing a CCK-8 assay kit (Abbkine) and were incubated at 37 °C and 5% CO2 for 2 h. Then, absorbance was measured at 450 nm in a micro-plate reader (VLBL00D0, Thermo Fisher Scientific). Results were quantified using Sigma Plot (Systat Software, USA). To determine the effect of extracellular HMGB1 in GBM and endothelial cell proliferation, U87MG and HUVECs were seeded in 96-well culture plates (seeding density: 0.75 × 10^4 cells per well) and GL, Lf, or Lf-GL (50 × 10^–6 M GL equivalent concentration) were added to cells with or without HMGB1 protein (U87MG: 0.1 μg mL^−1, and HUVEC: 1 μg mL^−1). Cells were incubated for different periods of time (24, 48, and 72 h).

[3] = system: orthotopic GBM (U87MG) mice model; test: TUNEL assay of GBM tissue; format: in vivo, Balb/c nude mice; conditions: daily i.v., 14 days (control 28.5 ± 4.8)
From the text: as §1

HMGB1 [4] = test: Immunofluorescence staining of HMGB1 in GBM tissue; format: in vivo, Balb/c nude mice; conditions: GBM mice, daily i.v. GL equivalent 50 mg kg^−1, 14 days (control 15.3 ± 1.7)
From the text: as §1

[5] = In vivo fluorescence tracer image (brain); design: species or system Balb/c mice; conditions: FITC-tagged
Protocol: For the fluorescence tracer images, Balb/c mice were administered either FITC-tagged GL or FITC-tagged Lf-GL at a GL equivalent concentration of 50 mg kg^−1 body weight via tail vein injection. After 1, 10, 30, and 60 min, the experimental mice were sacrificed, and the organs were extracted. The fluorescence signals of FITC-tagged GL or FITC-tagged Lf-GL in organs were imaged using an in vivo imaging system (FOBI, CELLGENTEK, South Korea). The exposure time was fixed to 200 s for analyzing fluorescent signals from tissues. The quantified fluorescence signal of the brain at each time point was measured in terms of intensity units (IU, Intensity Min^−1 Gain^−1).
Fig. S15. Fluorescence tracer images of intravenously injected GL and Lf-GL. Balb/c mice were administered either FITC-tagged GL or FITC-tagged Lf-GL at a GL equivalent concentration of 50 mg kg^-1 body weight via tail vein injection. The fluorescence signals of FITC-tagged GL or FITC-tagged Lf-GL in organs were imaged using an in vivo imaging system (FOBI, CELLGENTEK, South Korea). The exposure time was fixed to 200 sec for analyzing fluorescent signals from tissues. The quantified fluorescence signal of brain at each time point was measured with Intensity Unit (IU, Intensity Min^-1 Gain^-1).

HMGB1 box B = biological target: HMGB1 box B; design: method as in PMID 17462578; conditions: previously reported; cited from earlier work
[6] = In vivo pharmacokinetics study
[7] = system: orthotopic GBM (U87MG) mice model; test: Nissl staining: GBM/normal brain ratio; format: in vivo, Balb/c nude mice; conditions: daily i.v. GL equivalent 50 mg kg^−1, 14 days (control 37.5 ± 2.3)
From the text: as §1

HMGB1 [8] = test: HMGB1 ELISA of U87MG culture medium; format: cell-based, human; conditions: 50 μM GL equivalent, 48 h (control 131.8 ± 11.4)
Protocol: U87MG cells were seeded in 100 mm-cell culture dishes (2.2 × 10^6 cells per dish) and treated with GL, Lf, or Lf-GL (50 × 10^–6 M GL equivalent concentration) for 48 h. After incubating, cells were collected using a cell scrapper and were centrifuged for 3 min at 150 × g. Supernatant was collected as cell culture medium, and pellets were washed with cold PBS twice and transferred into a microcentrifuge tube. Tubes were centrifuged, and then pellets were resuspended in 500 μL 1X hypotonic buffer and incubated on ice. Then, 25 μL of NP40 was added and the mixture was agitated using a vortex mixer at the highest setting. Homogenates were centrifuged for 10 min at 842 × g at 4℃. Supernatant was collected as the cytoplasmic fraction, and pellets were resuspended in cell extraction buffer (50 μL) and were incubated for 30 min on ice with vortexing at 10 min intervals. Then, homogenates were centrifuged for 30 min at 14,000 × g at 4℃. Supernatant was collected as the nuclear fraction. The amount of HMGB1 in the samples was measured using a HMGB1 ELISA kit (Abbkine), and absorbance was measured at 450 nm in a micro-plate reader. A DNA assay (Quant-iT™ dsDNA Assay Kit, Invitrogen) was also conducted to express HMGB1 concentrations in equivalent amounts of DNA.

[9] = Balb/c, mouse, plasma, iv, 50 mg/kg

CC1(C)[C@@H](O[C@H]2O[C@H](C(=O)O)[C@@H](O)[C@H](O)[C@H]2O[C@@H]2O[C@H](C(=O)O)[C@@H](O)[C@H](O)[C@H]2O)CC[C@]2(C)[C@H]3C(=O)C=C4[C@@H]5C[C@@](C)(C(=O)O)CC[C@]5(C)CC[C@@]4(C)[C@]3(C)CC[C@@H]12 [GL, Glycyrrhizin]
Decrease of MFI of CD31 (CD31): approximately 4 fold
Additional days of survival versus PBS control [1]: 4 days
Number of cells, % of the original count [2]: 93.4 ± 4.8%
TUNEL MFI [3]: 16.3 ± 2.8
Mean fluorescence intensity (MFI) of HMGB1 (HMGB1 [4]): 6.2 ± 0.8
Time up to which fluorescence signal was detected in the brain ([5]; i.v. GL equivalent 50 mg kg^−1): ≤ 10 min
Fluorescence intensity in the brain ([5]; i.v. GL equivalent 50 mg kg^−1, 10 min after injection): 7,914 I.U.
Kd (HMGB1 box B): 140 ± 3 µM
AUC(0-t) [6, 9]: 102 µg·h/mL
Cmax [6, 9]: 254 ± 117 µg/mL
MRT [6, 9]: 4.6 min
Tmax [6, 9]: 1 min
half-life ([6]; Balb/c, mouse, plasma, iv, 50 mg/kg, T1/2, elimination half-life, mice, GL equivalent 50 mg kg^−1, plasma): ~3.8 min
Time after administration until cleared from / remaining in circulation ([6]; mice, i.v., GL equivalent 50 mg kg^−1): 150 min
GBM/normal brain ratio [7]: 26.4 ± 5.7
HMGB1 released into the medium of U87MG cells (HMGB1 [8]): 80.7 ± 4.5 ng/mL
